Assay results as given in patent US8802597B2, “Herbicidal pyrimidines” (E I du Pont de Nemours and Company, priority 2003, dated 2014).

Legend:
Assay in all cases: Test C pre/postemergence
Type in all cases: in vivo
Conditions in all cases: Preemergence
corn (Zea mays) = test system: corn (Zea mays)
Text: (§1) Seeds or nutlets of plant species selected from bermudagrass (Cynodon dactylon), Surinam grass (Brachiaria decumbens), cocklebur (Xanthium strumarium), corn (Zea mays), crabgrass (Digitaria sanguinalis), woolly cupgrass (Eriochloa villosa), giant foxtail (Setaria faberii), goosegrass (Eleusine indica), johnsongrass (Sorghum halepense), kochia (Kochia scoparia), lambsquarters (Chenopodium album), morningglory (Ipomoea coccinea), eastern black nightshade (Solanum ptycanthum), yellow nutsedge (Cyperus esculentus), pigweed (Amaranthus retroflexus), common ragweed (Ambrosia elatior), soybean (Glycine max), common (oilseed) sunflower (Helianthus annuus), and velvetleaf (Abutilon theophrasti) were planted and treated preemergence with test chemicals formulated in a non-phytotoxic solvent mixture which included a surfactant.
(§2) At the same time, plants selected from these crop and weed species and also winter barley (Hordeum vulgare), blackgrass (Alopecurus myosuroides), canarygrass (Phalaris minor), chickweed (Stellaria media), downy brome (Bromus tectorum), green foxtail (Setaria viridis), Italian ryegrass (Lolium multiflorum), wheat (Triticum aestivum), wild oat (Avena fatua) and windgrass (Apera spica-venti) were treated with postemergence applications of some of the test chemicals formulated in the same manner. Plants ranged in height from 2 to 18 cm (1- to 4-leaf stage) for postemergence treatments. Plant species in the flooded paddy test consisted of rice (Oryza sativa), umbrella sedge (Cyperus difformis), duck salad (Heteranthera limosa) and barnyardgrass (Echinochloa crus-galli) grown to the 2-leaf stage for testing. Treated plants and controls were maintained in a greenhouse for 12 to 14 days, after which time all species were compared to controls and visually evaluated. Plant response ratings, summarized in Table C, are based on a scale of 0 to 100 where 0 is no effect and 100 is complete control. A dash (-) response means no test result.

[1] = test system: common ragweed (Ambrosia elatior)
Text: as §1, §2

[2] = test system: lambsquarters (Chenopodium album)
Text: as §1, §2

[3] = test system: cocklebur (Xanthium strumarium)
Text: as §1, §2

[4] = 62 g ai/ha, scale 0 to 100, 0 no effect, 100 complete control
[5] = 31 g ai/ha, scale 0 to 100, 0 no effect, 100 complete control

Question: CCOC(=O)Cc1nc(C2CC2)nc(N=CN(C)C)c1Br [Compound 33] was tested. Which “Plant response rating, Corn” value (corn (Zea mays); [4]) did it give?
Answer: 0

Question: What about the “Plant response rating, Corn” value (corn (Zea mays); 125 g ai/ha, scale 0 to 100) of the same compound?
Answer: 0

Question: What about the “Plant response rating, Corn” value (corn (Zea mays); 250 g ai/ha, scale 0 to 100) of the same compound?
Answer: 30

Question: What about the “Plant response rating, Corn” value (corn (Zea mays); 500 g ai/ha, scale 0 to 100) of the same compound?
Answer: 40

Question: And the “Plant response rating, Ragweed” value [1, 4]?
Answer: 0

Question: And the “Plant response rating, Ragweed” value ([1]; 125 g ai/ha, scale 0 to 100)?
Answer: 20

Question: And the “Plant response rating, Ragweed” value ([1]; 250 g ai/ha, scale 0 to 100)?
Answer: 70

Question: What about the “Plant response rating, Ragweed” value ([1]; 500 g ai/ha, scale 0 to 100) of the same compound?
Answer: 90

Question: And the “Plant response rating, Lambsquarters” value ([2]; 250 g ai/ha, scale 0 to 100)?
Answer: 85

Question: What about the “Plant response rating, Cocklebur” value [3, 4] of the same compound?
Answer: 0

Question: And the “Plant response rating, Cocklebur” value ([3]; 125 g ai/ha, scale 0 to 100)?
Answer: 0

Question: And the “Plant response rating, Cocklebur” value ([3]; 250 g ai/ha, scale 0 to 100)?
Answer: 90

Question: What about the “Plant response rating, Cocklebur” value ([3]; 500 g ai/ha, scale 0 to 100) of the same compound?
Answer: 95

Question: Which results are given for CCOC(=O)Cc1nc(C2CC2)nc(N)c1Br [Compound 12]?
Answer: Plant response rating, Corn (corn (Zea mays); [5]): 0; Plant response rating, Corn (corn (Zea mays); [4]): 30; Plant response rating, Corn (corn (Zea mays); 125 g ai/ha, scale 0 to 100): 60; Plant response rating, Ragweed [1, 4]: 10; Plant response rating, Ragweed ([1]; 125 g ai/ha, scale 0 to 100): 20; Plant response rating, Ragweed ([1]; 250 g ai/ha, scale 0 to 100): 85; Plant response rating, Lambsquarters [2, 5]: 0; Plant response rating, Lambsquarters [2, 4]: 10; Plant response rating, Lambsquarters ([2]; 125 g ai/ha, scale 0 to 100): 40; Plant response rating, Lambsquarters ([2]; 250 g ai/ha, scale 0 to 100): 70; Plant response rating, Cocklebur [3, 5]: 50; Plant response rating, Cocklebur [3, 4]: 50; Plant response rating, Cocklebur ([3]; 125 g ai/ha, scale 0 to 100): 85; Plant response rating, Cocklebur ([3]; 250 g ai/ha, scale 0 to 100): 90

Question: With CCOC(=O)c1nc(C2CC2)nc(N=CN(C)C)c1Br [Compound 40] as the compound, how does the “Plant response rating, Corn” value (corn (Zea mays); [4]) read?
Answer: 0

Question: What about the “Plant response rating, Corn” value (corn (Zea mays); 125 g ai/ha, scale 0 to 100) of the same compound?
Answer: 20

Question: What about the “Plant response rating, Corn” value (corn (Zea mays); 250 g ai/ha, scale 0 to 100) of the same compound?
Answer: 20

Question: What about the “Plant response rating, Corn” value (corn (Zea mays); 500 g ai/ha, scale 0 to 100) of the same compound?
Answer: 40

Question: What about the “Plant response rating, Ragweed” value [1, 4] of the same compound?
Answer: 90

Question: And the “Plant response rating, Ragweed” value ([1]; 125 g ai/ha, scale 0 to 100)?
Answer: 90

Question: And the “Plant response rating, Ragweed” value ([1]; 250 g ai/ha, scale 0 to 100)?
Answer: 100

Question: What about the “Plant response rating, Ragweed” value ([1]; 500 g ai/ha, scale 0 to 100) of the same compound?
Answer: 100

Question: And the “Plant response rating, Lambsquarters” value [2, 4]?
Answer: 100

Question: What about the “Plant response rating, Lambsquarters” value ([2]; 125 g ai/ha, scale 0 to 100) of the same compound?
Answer: 100

Question: And the “Plant response rating, Lambsquarters” value ([2]; 250 g ai/ha, scale 0 to 100)?
Answer: 100

Question: What about the “Plant response rating, Lambsquarters” value ([2]; 500 g ai/ha, scale 0 to 100) of the same compound?
Answer: 100

Question: What about the “Plant response rating, Cocklebur” value [3, 4] of the same compound?
Answer: 5

Question: And the “Plant response rating, Cocklebur” value ([3]; 125 g ai/ha, scale 0 to 100)?
Answer: 70

Question: What about the “Plant response rating, Cocklebur” value ([3]; 250 g ai/ha, scale 0 to 100) of the same compound?
Answer: 90

Question: And the “Plant response rating, Cocklebur” value ([3]; 500 g ai/ha, scale 0 to 100)?
Answer: 100

Question: COC(=O)Cc1nc(C2CC2)nc(N)c1Br [Compound 13] was tested. Which “Plant response rating, Corn” value (corn (Zea mays); [5]) did it give?
Answer: 0

Question: And the “Plant response rating, Corn” value (corn (Zea mays); [4])?
Answer: 5

Question: What about the “Plant response rating, Corn” value (corn (Zea mays); 125 g ai/ha, scale 0 to 100) of the same compound?
Answer: 10

Question: What about the “Plant response rating, Corn” value (corn (Zea mays); 250 g ai/ha, scale 0 to 100) of the same compound?
Answer: 30

Question: And the “Plant response rating, Ragweed” value [1, 5]?
Answer: 45

Question: What about the “Plant response rating, Ragweed” value [1, 4] of the same compound?
Answer: 60

Question: What about the “Plant response rating, Ragweed” value ([1]; 125 g ai/ha, scale 0 to 100) of the same compound?
Answer: 70

Question: What about the “Plant response rating, Ragweed” value ([1]; 250 g ai/ha, scale 0 to 100) of the same compound?
Answer: 85

Question: And the “Plant response rating, Lambsquarters” value [2, 5]?
Answer: 50

Question: And the “Plant response rating, Lambsquarters” value [2, 4]?
Answer: 85

Question: And the “Plant response rating, Lambsquarters” value ([2]; 125 g ai/ha, scale 0 to 100)?
Answer: 90

Question: And the “Plant response rating, Lambsquarters” value ([2]; 250 g ai/ha, scale 0 to 100)?
Answer: 90

Question: What about the “Plant response rating, Cocklebur” value [3, 5] of the same compound?
Answer: 40

Question: And the “Plant response rating, Cocklebur” value [3, 4]?
Answer: 60

Question: What about the “Plant response rating, Cocklebur” value ([3]; 125 g ai/ha, scale 0 to 100) of the same compound?
Answer: 90

Question: What about the “Plant response rating, Cocklebur” value ([3]; 250 g ai/ha, scale 0 to 100) of the same compound?
Answer: 95

Question: Which results are given for CCOC(=O)C(Cl)c1nc(C2CC2)nc(N)c1Br (centres unmarked) [Compound 31]?
Answer: Plant response rating, Corn (corn (Zea mays); [5]): 0; Plant response rating, Corn (corn (Zea mays); [4]): 0; Plant response rating, Corn (corn (Zea mays); 125 g ai/ha, scale 0 to 100): 0; Plant response rating, Corn (corn (Zea mays); 250 g ai/ha, scale 0 to 100): 0; Plant response rating, Ragweed [1, 5]: 5; Plant response rating, Ragweed [1, 4]: 10; Plant response rating, Ragweed ([1]; 125 g ai/ha, scale 0 to 100): 60; Plant response rating, Ragweed ([1]; 250 g ai/ha, scale 0 to 100): 60; Plant response rating, Lambsquarters [2, 5]: 0; Plant response rating, Lambsquarters [2, 4]: 40; Plant response rating, Lambsquarters ([2]; 125 g ai/ha, scale 0 to 100): 40; Plant response rating, Lambsquarters ([2]; 250 g ai/ha, scale 0 to 100): 80; Plant response rating, Cocklebur [3, 5]: 0; Plant response rating, Cocklebur [3, 4]: 60; Plant response rating, Cocklebur ([3]; 125 g ai/ha, scale 0 to 100): 75; Plant response rating, Cocklebur ([3]; 250 g ai/ha, scale 0 to 100): 85

Question: Which results are given for Nc1nc(C2CC2)nc(C=O)c1Br [Compound 26]?
Answer: Corn plant response rating (crop injury, 0 = no effect, 100 = complete kill) at 62 g/ha (corn (Zea mays); Zea mays, pre-emergence, 62 g ai/ha, scale 0 to 100, 0 no effect, 100 complete control, read-out: Plant response rating, Corn): 0%; Corn plant response rating (crop injury, 0 = no effect, 100 = complete kill) at 125 g/ha (corn (Zea mays); Zea mays, pre-emergence, 125 g ai/ha, scale 0 to 100, read-out: Plant response rating, Corn): 0%; Corn plant response rating (crop injury, 0 = no effect, 100 = complete kill) at 250 g/ha (corn (Zea mays); Zea mays, pre-emergence, 250 g ai/ha, scale 0 to 100): 0%; Corn plant response rating (crop injury, 0 = no effect, 100 = complete kill) at 500 g/ha (corn (Zea mays); Zea mays, pre-emergence, 500 g ai/ha, scale 0 to 100): 20%; pest or weed control at 62 g/ha ([1]; Ambrosia artemisiifolia, pre-emergence, 62 g ai/ha, scale 0 to 100, 0 no effect, 100 complete control, read-out: Plant response rating, Ragweed): 0%; pest or weed control at 125 g/ha ([1]; Ambrosia artemisiifolia, pre-emergence, 125 g ai/ha, scale 0 to 100, read-out: Plant response rating, Ragweed): 10%; pest or weed control at 250 g/ha ([1]; Ambrosia artemisiifolia, pre-emergence, 250 g ai/ha, scale 0 to 100, read-out: Plant response rating, Ragweed): 85%; pest or weed control at 500 g/ha ([1]; Ambrosia artemisiifolia, pre-emergence, 500 g ai/ha, scale 0 to 100, read-out: Plant response rating, Ragweed): 90%; pest or weed control at 62 g/ha ([2]; Chenopodium album, pre-emergence, 62 g ai/ha, scale 0 to 100, 0 no effect, 100 complete control, read-out: Plant response rating, Lambsquarters): 10%; pest or weed control at 500 g/ha ([2]; Chenopodium album, pre-emergence, 500 g ai/ha, scale 0 to 100, read-out: Plant response rating, Lambsquarters): 90%; pest or weed control at 62 g/ha ([3]; Xanthium strumarium, pre-emergence, 62 g ai/ha, scale 0 to 100, 0 no effect, 100 complete control, read-out: Plant response rating, Cocklebur): 70%; pest or weed control at 125 g/ha ([3]; Xanthium strumarium, pre-emergence, 125 g ai/ha, scale 0 to 100, read-out: Plant response rating, Cocklebur): 70%; pest or weed control at 250 g/ha ([3]; Xanthium strumarium, pre-emergence, 250 g ai/ha, scale 0 to 100, read-out: Plant response rating, Cocklebur): 90%; pest or weed control at 500 g/ha ([3]; Xanthium strumarium, pre-emergence, 500 g ai/ha, scale 0 to 100, read-out: Plant response rating, Cocklebur): 95%
